Reference: patent US4327178A, “Urinary kallikrein assay: specific substrates and assay method” (University of Miami, priority 1981, dated 1982)
Where a SMILES comes first, the peptide text is derived from it. The star is where a group is joined. (3H)benzylamide = C-terminal benzylamide carrying tritium label; (3H)anilide = C-terminal anilide carrying tritium label; pNA = O=[N+]([O-])c1ccc(N*)cc1; Bz = O=C(c1ccccc1)*; X2 = Ic1cccc(CN*)c1; X3 = Ic1ccc(CN*)cc1; X1 = Ic1ccc(N*)cc1

Legend:
Assay type in all cases: biochemical
[1] = biological target: purified urinary kallikrein (Homo sapiens, UniProt P06870); test: Urinary kallikrein-catalyzed hydrolysis of N-alpha-acylated substrates relative to non-acylated compounds; details: approximately 20 nM substrate, 60 ng purified urinary kallikrein, 100 μl 0.1 M tris HCl pH 9.5, 37° C., 15 minutes; conditions optimized for non-acylated substrate
human urinary kallikrein [2] = biological target: T1, human urinary kallikrein (Homo sapiens, UniProt P06870); test: Assay of human urinary kallikrein: suitability as substrate (in words)
T1 construct: dialyzed or gel-filtered human urine in the general A1 assay
Experimental: Human urine is treated to remove low molecular weight impurities, either by overnight dialysis against 0.9%(w/v) NaCl or by gel filtration. A typical reaction mixture may contain 50 μl dialyzed urine and 0.1 μCi of substrate at a final concentration of 20 ng/ml buffered with 0.1 M tris-HCl, pH 9.5, in a total reaction volume of 100 μl. Reaction tubes are incubated at 37° C. for two hours. Variations of incubation time and temperature for the purpose of increasing or decreasing the amount of product formed are known expedients within the scope of ordinary skill in the art. Reactions may be stopped by any technique which causes rapid termination of the enzyme-catalyzed reaction without significant alteration of the product concentration. Use of an excess volume of base, e.g., 1.0 ml of 0.1 NaOH, is preferred. The product is separated from the reaction mixture by extraction with a measured volume of an aprotic solvent such as toluene or ether, or by other suitable means such as ion-exchange chromatography. Where solvent extraction is employed, an aliquot of the solvent (containing reaction product) may be sampled for radioactivity counting. Scintillation counting is preferred for counting tritium, and use of an extracting solvent such as toluene or ether permits direct transfer of a solvent aliquot to the scintillation fluid.
A standard curve may be constructed substituting purified kallikrein for dialyzed urine. A unit of enzyme is defined herein as that amount required to hydrolyze substrate at an initial rate of 1% per minute at 37° C. The foregoing definition is applicable where the concentration of substrate is well below Km such that hydrolysis is first order with respect to substrate concentration. The number of kallikrein units/ml of dialyzed urine is given by [formula] where 1.0 ml of solvent is used for the extraction and an aliquot of 0.5 ml is taken for counting. The blank c.p.m. value is determined in a control reaction lacking enzyme but otherwise treated identically.

human urinary kallikrein [3] = biological target: T1, human urinary kallikrein; test: Km and Vmax of substrates with purified human urinary kallikrein (Lineweaver-Burk double reciprocal plot)
Experimental: The double reciprocal plot method of H. Lineweaver and D. Burk (J.Am.Chem.Soc. 56, 658 (1934)) was used to estimate Km and Vmax for these substrates. Purified human urinary kallikrein prepared as described by Oza, N. B. and Ryan, J., supra, was used in this study. Reactions were conducted at 37° C. for 15 minutes with 62.5 ng of enzyme and the indicated amount of substrate, in 0.05 M tris-HCl pH 9.5. Reactions were terminated by the addition of a nine-fold excess of 0.1 N NaOH. The ^3 H-labeled product was separated from substrate by extraction with an equal volume (1 ml) of toluene. A 0.5 ml aliquot of the toluene phase was transferred to a scintillation vial containing a toluene-based scintillation fluid and counted. Results for H-ProPheArg-[^3 H]-benzylamide are shown in FIG. 1, and for H-ProPheArg-[^3 H]anilide in FIG. 2. The units of l/v were nmol^-1 min. Units of l/S were μmole^-1.liter.

Urokinase = test: Reaction specificity: hydrolysis by serine proteases; details: printed on the pH 9.5 line (pH 7.5 line blank); No hydrolysis = no measureable reaction with a maximum of 0.5 mg/ml enzyme; 20 nM substrate, 37° C., 15 minutes
Experimental: (§1) The hydrolysis of H-ProPheArg-[^3 H]benzylamide by a series of serine proteases was measured. Reactions were carried out using 20 nM substrate in 0.1 M tris-HCl buffer, pH 7.5 or pH 9.5, at 37° C. for 15 minutes in the presence of varied amounts of enzyme. The results are shown in Table 2, expressed as the amount of enzyme necessary to hydrolyze 10% of the substrate under the given conditions. "No hydrolysis" is used to denote no measureable reaction with a maximum of 0.5 mg/ml enzyme.

Thrombin = test: as above; details: printed on the pH 9.5 line (pH 7.5 line blank); No hydrolysis = no measureable reaction with a maximum of 0.5 mg/ml enzyme; 20 nM substrate, 37° C., 15 minutes
Experimental: as §1

α-Chymotrypsin = test: as above; details: printed on the pH 9.5 line (pH 7.5 line blank); No hydrolysis = no measureable reaction with a maximum of 0.5 mg/ml enzyme; 20 nM substrate, 37° C., 15 minutes
Experimental: as §1

Plasmin = test: as above; details: 20 nM substrate, 0.1 M tris-HCl, 37° C., 15 minutes
Experimental: as §1

human urinary kallikrein [4] = biological target: T1, human urinary kallikrein; test: as above; details: 20 nM substrate, 0.1 M tris-HCl, 37° C., 15 minutes
Experimental: as §1

Trypsin = test: as above; details: 20 nM substrate, 0.1 M tris-HCl, 37° C., 15 minutes
Experimental: as §1

human urinary kallikrein [5] = biological target: T1, human urinary kallikrein; test: Relative activity of halogenated (4-iodoanilide) substrates, spectrophotometric standard assay; details: 150 nmol substrate in 0.7 ml 0.05 tris-HCl, pH 8.1, 37° C.
Experimental: Unlabeled halogenated 4-iodoanilide substrates, prepared essentially as described in Example 5, were compared with respect to reaction rate with human urinary kallikrein in a standard assay. Each substrate, 150 nmol, was incubated with purified human urinary kallikrein in 0.7 ml of 0.05 tris-HCl, pH 8.1 at 37° C. At timed intervals, 100 μl of reaction mixture was added to 1.0 ml of 0.1 N NaOH. The resulting solution was extracted with CHCl3 and the organic phase was evaporated to dryness. The residue was dissolved in buffer and examined spectrophotometrically in the 240-300 nm range, where a difference spectrum between substrate and product is measureable. The results are shown in Table 1, with rates of hydrolysis expressed as nmol/min/mg enzyme.

[6] = 62.5 ng purified enzyme, 0.05 M tris-HCl pH 9.5, 37° C., 15 minutes

purified urinary kallikrein, sequence (P06870 25-262): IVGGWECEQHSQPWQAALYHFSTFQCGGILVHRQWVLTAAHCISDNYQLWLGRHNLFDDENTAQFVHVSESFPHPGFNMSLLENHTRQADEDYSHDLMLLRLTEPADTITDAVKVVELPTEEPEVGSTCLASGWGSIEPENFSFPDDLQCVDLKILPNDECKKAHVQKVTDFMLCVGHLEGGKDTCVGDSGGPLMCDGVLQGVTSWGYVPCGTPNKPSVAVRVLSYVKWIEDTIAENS
T1 sequence (P06870 25-262): as above

## [3H]c1cccc(CNC(=O)[C@H](CCCNC(=N)N)NC(=O)[C@H](Cc2ccccc2)NC(=O)[C@@H]2CCCN2C(=O)c2ccccc2)c1 [Benzoyl-ProPheArg-[^3 H]benzylamide]
[1]
  rate of hydrolysis relative to the non-acylated compounds: about 1/2

## N=C(N)NCCC[C@H](NC(=O)[C@H](Cc1ccccc1)NC(=O)[C@@H]1CCCN1C(=O)[C@H](CO)NC(=O)[C@@H](N)Cc1ccccc1)C(=O)NCc1cccc(I)c1 [H-PheSerProPheArg-3-iodobenzylamide] (H-FSPFR-X2)
Human urinary kallikrein [2]
  activity as substrate for human urinary kallikrein (in words): suitable substrates

## N=C(N)NCCC[C@H](NC(=O)[C@H](Cc1ccccc1)NC(=O)[C@@H]1CCCN1C(=O)[C@H](CO)NC(=O)[C@@H](N)Cc1ccccc1)C(=O)NCc1ccc(I)cc1 [H-PheSerProPheArg-4-iodobenzylamide] (H-FSPFR-X3)
Human urinary kallikrein [2]
  activity as substrate for human urinary kallikrein (in words): suitable substrates

## [3H]c1cccc(CNC(=O)[C@H](CCCNC(=N)N)NC(=O)[C@H](Cc2ccccc2)NC(=O)[C@@H]2CCCN2)c1 [H-ProPheArg-[^3 H]benzylamide, H-ProPheArg-[^3 H] benzylamide]
Human urinary kallikrein [3]; [6]
  Km: 3 µM
  Vmax: 0.88 mmol/min/mg protein
Urokinase
  Amount of Enzyme Required for 10% Hydrolysis: No hydrolysis
Thrombin
  Amount of Enzyme Required for 10% Hydrolysis: No hydrolysis
α-Chymotrypsin
  Amount of Enzyme Required for 10% Hydrolysis: No hydrolysis
Plasmin; pH 7.5
  Amount of Enzyme Required for 10% Hydrolysis: 17,200 ng
Plasmin; pH 9.5
  Amount of Enzyme Required for 10% Hydrolysis: 30,600 ng
Human urinary kallikrein [4]; pH 7.5
  Amount of Enzyme Required for 10% Hydrolysis: 265 ng
Human urinary kallikrein [4]; pH 9.5
  Amount of Enzyme Required for 10% Hydrolysis: 45 ng
  Amount of Enzyme Required for 10% Hydrolysis (as enzyme concentration, in brackets): 10 nM
Trypsin; pH 7.5
  Amount of Enzyme Required for 10% Hydrolysis: 400 ng
Trypsin; pH 9.5
  Amount of Enzyme Required for 10% Hydrolysis: 1,030 ng

## N=C(N)NCCC[C@H](NC(=O)[C@H](Cc1ccccc1)NC(=O)[C@@H]1CCCN1C(=O)[C@@H](N)CO)C(=O)NCc1cccc(I)c1 [H-SerProPheArg-3-iodobenzylamide] (H-SPFR-X2)
Human urinary kallikrein [2]
  activity as substrate for human urinary kallikrein (in words): suitable substrates

## N=C(N)NCCC[C@H](NC(=O)[C@H](Cc1ccccc1)NC(=O)[C@@H]1CCCN1C(=O)[C@@H](N)CO)C(=O)NCc1ccc(I)cc1 [H-SerProPheArg-4-iodobenzylamide] (H-SPFR-X3)
Human urinary kallikrein [2]
  activity as substrate for human urinary kallikrein (in words): suitable substrates

## N=C(N)NCCC[C@H](NC(=O)[C@@H](N)Cc1ccccc1)C(=O)Nc1ccc(I)cc1 [Phe--Arg--4-iodoanilide]
Human urinary kallikrein [5]
  Rate of Hydrolysis: Nil

## N=C(N)NCCC[C@H](NC(=O)[C@H](Cc1ccccc1)NC(=O)[C@@H]1CCCN1C(=O)[C@H](CO)NC(=O)[C@@H](N)Cc1ccccc1)C(=O)Nc1ccc(I)cc1 [Phe--Ser--Pro--Phe--Arg--4-iodoanilide] (H-FSPFR-X1)
Human urinary kallikrein [5]
  Rate of Hydrolysis: 1.12 nmol/min/mg enzyme

## N=C(N)NCCC[C@H](NC(=O)[C@H](Cc1ccccc1)NC(=O)[C@@H]1CCCN1)C(=O)Nc1ccc(I)cc1 [Pro--Phe--Arg--4-iodoanilide]
Human urinary kallikrein [5]
  Rate of Hydrolysis: 0.73 nmol/min/mg enzyme

## N=C(N)NCCC[C@H](NC(=O)[C@H](Cc1ccccc1)NC(=O)[C@@H]1CCCN1C(=O)[C@@H](N)CO)C(=O)Nc1ccc(I)cc1 [Ser--Pro--Phe--Arg--4-iodoanilide] (H-SPFR-X1)
Human urinary kallikrein [5]
  Rate of Hydrolysis: 0.62 nmol/min/mg enzyme

## [3H]c1cccc(CNC(=O)[C@H](CCCNC(=N)N)NC(=O)[C@H](Cc2ccccc2)NC(=O)[C@@H]2CCCN2C(C)=O)c1 [acetylated]
[1]
  rate of hydrolysis relative to the non-acylated compounds: generally similar rates

## N=C(N)NCCC[C@H](NC(=O)[C@H](Cc1ccccc1)NC(=O)[C@@H]1CCCN1C(=O)c1ccccc1)C(=O)Nc1ccc([N+](=O)[O-])cc1 [benzoyl-ProPheArg-p-nitroanilide, reference compound] (Bz-Pro-Phe-Arg-pNA)
Human urinary kallikrein [2]
  activity as substrate for human urinary kallikrein (in words): inactive

## [3H]c1cccc(CNC(=O)[C@H](CCCNC(=N)N)NC(=O)[C@H](Cc2ccccc2)NC(=O)[C@@H]2CCCN2C(=O)C2CCCC2)c1 [cyclopentylcarbonylated]
[1]
  rate of hydrolysis relative to the non-acylated compounds: generally similar rates

## [3H]c1cccc(CNC(=O)[C@H](CCCNC(=N)N)NC(=O)[C@H](Cc2ccccc2)NC(=O)[C@@H]2CCCN2C(=O)CCC(=O)O)c1 [succinyl derivative, Succinyl-ProPheArg-[^3 H]benzylamide]
[1]
  rate of hydrolysis relative to the non-acylated compounds: 1/10

## H-PheSerProPheArg-[^3 H] anilide (H-FSPFR-{(3H)anilide})
Human urinary kallikrein [2]
  activity as substrate for human urinary kallikrein (in words): substrates

## H-PheSerProPheArg-[^3 H]benzylamide (H-FSPFR-{(3H)benzylamide})
Human urinary kallikrein [2]
  activity as substrate for human urinary kallikrein (in words): suitable substrates

## H-ProPheArg-[^3 H]anilide
Human urinary kallikrein [3]; [6]
  Vmax: 0.39 mmol/min/mg protein
Human urinary kallikrein [3]; 62.5 ng purified enzyme, 0.05 M tris-HCl pH 9.5, 37° C., 15 minutes, listed as H-ProPheArg-[^3 H]-anilide
  Km: 0.8 µM
Human urinary kallikrein [3]; 62.5 ng purified enzyme, 0.05 M tris-HCl pH 9.5, 37° C., 15 minutes, listed as ProPheArg-[^3 H] anilide
  Km: ~0.8 µM
Human urinary kallikrein [3]; as summarised in the detailed description
  Vmax: approximately 0.39 mmol/min/mg
Human urinary kallikrein [2]
  activity as substrate for human urinary kallikrein (in words): excellent substrate

## H-SerProPheArg-[^3 H]-benzylamide (H-SPFR-{(3H)benzylamide})
Human urinary kallikrein [2]
  activity as substrate for human urinary kallikrein (in words): suitable substrates

## H-SerProPheArg-[^3 H]anilide (H-SPFR-{(3H)anilide})
Human urinary kallikrein [2]
  activity as substrate for human urinary kallikrein (in words): substrates
